Assay results taken from US6777431B2, “Non-convalent thrombin inhibitors” (Corvas International, Inc., priority 2001, dated 2004).

Tests used:
[1] = target: Thrombin (Homo sapiens, UniProt P00734); test: Thrombin (fIIa) chromogenic substrate assay (Pefachrome t-PA); assay type: biochemical; conditions: human a-thrombin 0.5 nM, Pefachrome t-PA 250 μM, 30 min preincubation, HBSA pH 7.5; Ki calculated from the IC50
Procedure: (§1) The ability of compounds of the present invention to act as a selective inhibitor of thrombin activity was assessed by determining the concentration of test-compound which inhibited the activity of this enzyme by 50%, (IC50) or by determining the Ki value, and comparing this value to that determined for all or some of the following related serine proteases: recombinant tissue plasminogen activator (rt-PA), plasmin, activated protein C, chymotrypsin, factor Xa and trypsin. Ki is calculated from the IC50.
(§2) The buffer used for all assays was HBSA (10 mM HEPES, pH 7.5, 150 mM sodium chloride, 0.1% bovine serum albumin).
The assay for IC50 or Ki determinations was conducted by combining in appropriate wells of a Corning microtiter plate, 50 microliters of HBSA, 50 microliters of the test compound at a specified concentration (covering a broad concentration range) diluted in HBSA (or HBSA alone for V0 (uninhibited velocity) measurement), and 50 microliters of the enzyme diluted in HBSA. Following a 30 minute incubation at ambient temperature, 50 microliters of the substrate at the concentrations specified below were added to the wells, yielding a final total volume of 200 microliters. The initial velocity of chromogenic substrate hydrolysis was measured by the change in absorbance at 405 nm using a Thermo Max® Kinetic Microplate Reader over a 5 minute period in which less than 5% of the added substrate was utilized. The concentration of added inhibitor which caused a 50% decrease in the initial rate of hydrolysis was defined as the IC50 value. Ki may be calculated from the IC50 value.
Enzyme activity was determined using the chromogenic substrate, Pefachrome t-PA (CH3SO2-D-hexahydrotyrosine-glycyl-L-Arginine-p-nitroaniline, obtained from Pentapharm Ltd.). The substrate was reconstituted in deionized water prior to use.
The initial velocity of Pefachrome t-PA hydrolysis was measured by the change in absorbance at 405 nm using a Thermo Max® Kinetic Microplate Reader over a 5 minute period in which less than 5% of the added substrate was utilized. The concentration of added inhibitor which caused a 50% decrease in the initial rate of hydrolysis was defined as the IC50 value. Ki was calculated from the IC50 value.

[2] = target: T1, Trypsin (Bos taurus, UniProt P00760); test: Trypsin chromogenic substrate assay (S-2222); assay type: biochemical; conditions: bovine pancreatic trypsin 0.5 nM, S-2222 250 μM, HBSA pH 7.5
T1 construct: Purified (3×-crystallized; TRL3) bovine pancreatic trypsin was obtained from Worthington Biochemical Corp; purchased Worthington Biochemical Corp. TRL3; host or cells: bovine pancreas
T1 sequence (P00760 24-246): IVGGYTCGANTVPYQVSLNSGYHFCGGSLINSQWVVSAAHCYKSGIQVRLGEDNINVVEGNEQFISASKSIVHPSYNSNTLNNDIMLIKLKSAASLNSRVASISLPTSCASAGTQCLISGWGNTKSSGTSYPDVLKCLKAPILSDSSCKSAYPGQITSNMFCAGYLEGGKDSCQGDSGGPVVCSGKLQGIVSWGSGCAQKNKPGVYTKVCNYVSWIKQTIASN
Procedure: as §1, §2
The assay for IC50 or Ki determinations was conducted by combining in appropriate wells of a Corning microtiter plate, 50 microliters of HBSA, 50 microliters of the test compound at a specified concentration (covering a broad concentration range) diluted in HBSA (or HBSA alone for V0 (uninhibited velocity) measurement), and 50 microliters of the enzyme diluted in HBSA. […] The initial velocity of chromogenic substrate hydrolysis was measured by the change in absorbance at 405 nm using a Thermo Max® Kinetic Microplate Reader over a 5 minute period in which less than 5% of the added substrate was utilized. […] Ki may be calculated from the IC50 value. […]

Ki [1]	IC50 [2]	SMILES
≤ 0.1 µM	–	Cc1ccc(NS(=O)(=O)Cc2ccccc2)c(=O)n1CCCNc1ccc2ncccc2c1 [H]
0.3 to 2.5 µM	–	Cc1ccc(NS(=O)(=O)Cc2ccccc2)c(=O)n1CCCNc1cccc(N)n1 [R]
0.1 to 0.3 µM	–	Cc1cnc(NCCCc2ccccc2)c(=O)n1CCCNc1ccncc1 [O]
0.1 to 0.3 µM	–	Cc1ccc(NS(=O)(=O)Cc2ccccc2)c(=O)n1CCCNc1cccc2ncccc12 [P]
≤ 0.1 µM	–	Cc1ccc(NS(=O)(=O)Cc2ccccc2)c(=O)n1CCCNc1ccc2cc[nH]c2c1 [I]
≤ 0.1 µM	–	Cc1ccc(NS(=O)(=O)Cc2ccccc2)c(=O)n1CCCN(C)c1ccncc1 [E]
0.3 to 2.5 µM	–	Cc1ccc(NS(=O)(=O)Cc2ccccc2)c(=O)n1CCCn1ncc2ccc(N)cc21 [Q]
0.1 to 0.3 µM	–	Cc1ccc(NS(=O)(=O)Cc2ccccc2)c(=O)n1CCCNc1ncnc2[nH]cnc12 [G]
≤ 0.1 µM	–	Cc1ccc(NS(=O)(=O)Cc2ccccc2)c(=O)n1CCCNc1ccncc1F [J]
≤ 0.1 µM	–	Cc1ccc(NS(=O)(=O)Cc2ccc(Cl)cc2)c(=O)n1CCCNc1ccncc1 [F]
≤ 0.1 µM	–	Cc1ccc(NS(=O)(=O)Cc2ccccc2)c(=O)n1CCCNc1ccnc2ccccc12 [L]
≤ 0.1 µM	–	Cc1ccc(NS(=O)(=O)Cc2ccccc2)c(=O)n1CCCNc1ccncn1 [M]
≤ 0.1 µM	–	Cc1cnc(NCC(F)(F)c2ccccc2)c(=O)n1CCCNc1ccncc1 [C]
≤ 0.1 µM	–	Cc1ccc(NS(=O)(=O)Cc2ccc(Cl)cc2)c(=O)n1CCCNc1ccncc1F [K]
≤ 0.1 µM	0.3 to 2.5 µM	Cc1ccc(NS(=O)(=O)Cc2ccccc2)c(=O)n1CCCNc1ccncc1 [A]
0.1 to 0.3 µM	–	Cc1ccc(NS(=O)(=O)Cc2ccccc2)c(=O)n1CCCNc1ccc(N)nc1 [N]
≤ 0.1 µM	–	Cc1cnc(NCC(F)(F)c2ccccc2)c(=O)n1CCNc1ccncc1 [B]
0.1 to 0.3 µM	–	Cc1cnc(NCCc2ccccc2)c(=O)n1CCCNc1ccncc1 [D]
